“Also recorded” adds a separate entry of the source. Where no end group is shown, it is not given here. [ ]: non-standard residue; d: D form.
What was measured:
[1] = tested on: Raw macrophage-derived cells; test: Cell proliferation assay (phenol red, LDH content); type: cell-based; details: for Effect on growth of raw macrophage-derived cells: 2.5 μM, 48 hrs, phenol red / LDH content
Description: Use of the exemplary peptide of the invention as a carrier moiety was also examined in a cell proliferation assay. Raw macrophage-derived cells were incubated for 48 hrs with 2.5 μM of the indicated nucleoside analog or the analog as a conjugate with the RYF peptide in the presence of phenol red. Cultures containing dividing cells turn medium clear, while the medium of cultures containing in non-dividing cells remains dark (active compounds). Percentage growth was also determined by measuring the relative content of LDH (FIG. 11B). […] For example, the “ribo” and “tg” (Thioguanine) compounds have no effect at the concentration tested (2.5 μm), but become potently cytotoxic when conjugated to an exemplary peptide transporter of the invention (i.e., RYF).
The Experiment was repeated to investigate the effects of the L- or D-linkage on cytotoxic properties of the BAM moiety. The cells were incubated with 3′ amino β-D-arabinofuranoside either alone or in the form of a conjugate with the RYF peptide. […] However, once the 3′ position is conjugated to a D-entantiomer, it cannot be removed by a protease, and once incorporated into the DNA-strand, it will function to prevent further DNA elongation.
The experiment was repeated with 3′AdT (3′ amino deoxythymidine) and 3′ amino β-D-arabinofuranoside (Ribo). Cells were incubated with each of the compounds alone or as an N-terminally linked conjugate to the RYF peptide via either L-Glu (E) or D-Glu (e). The cells were then incubated for 72 hrs before LDH content was measured.

[2] = tested on: chondroitin-4-sulfate (C4S); test: Modified ELISA, peptide binding to coated proteoglycans
Description: The binding of the nine-mer peptides of the invention to C4S predicted by the models, in particular, as compared to the binding to other proteoglycans was tested using a modified ELISA protocol. ELISA plates were coated overnight with 1 mg/ml of heparin sulphate (HS), chondroitin-4-sulfate (C4S), chondroitin-6-sulfate (C6S) or hyaluronic acid (HA) in PBS. The wells were then washed with PBS and incubated for 1 hour at room temperature with 1 mg/ml of an exemplary peptide of the invention having the sequence RYFvRIKYRh (“RYF”; SEQ ID NO:2) or a standard TAT peptide. The plates were then thoroughly washed with PBS and subsequently photographed with a LUMASCOPE™ luminescent microscope. Images were then quantified using the ImageJ software (FIG. 4).
The same modified ELISA protocol was used to examine the impact of altering the chirality of the amino acid residues at positions 1, 5, 9 and 3 or 7 on the binding of the peptides to C4S. […] In FIG. 5, an upper case letter indicates an L-enantiomer and a lower case letter indicates a D-enantiomer.

Macrophages = test: FITC-RYF binding to chlorate pre-treated macrophages; type: cell-based; details: 0, 3, 10 or 30 μM chlorate for 16 hours
Description: The same fluorescent microscopy procedure was used to assess the binding of the FITC-RYF peptide on C4S expressing cells pre-treated with chlorate. Chlorate is an inhibitor of sulfotransferases, and, thus, chlorate treatment decreases or inhibits C4S expression. Macrophages were treated with 0, 3, 10 or 30 μM chlorate for 16 hours prior to washing, incubation with RYF (SEQ ID NO:2) peptide and photography as described above.

Sog9 cells = test: FITC-peptide binding to cells lacking C4S, fluorescence microscopy; type: cell-based; parameters: dose or concentration left out as unconfirmed; details: FITC conjugated peptide, 24 hrs
Source text: (§1) As explained throughout the description, the present molecules are able to selectively bind C4S over other proteoglycans.

CHO cells = test: FITC-peptide binding to C4S expressing cells, fluorescence microscopy; type: cell-based; parameters: dose or concentration left out as unconfirmed; details: FITC conjugated peptide, 24 hrs
Source text: as §1

[3] = tested on: cell lines from other lineages; test: Cancer cell line screening panel, summary over other lineages; type: cell-based, human; details: 54 cell lines from other lineages
Description: (§2) The use of peptides of the invention as carrier molecules was investigated in a screening panel of human cancer cell lines. The human tumor cell lines of the cancer screening panel were grown in RPMI 1640 medium containing 5% fetal bovine serum and 2 mM L-glutamine. For a typical screening experiment, cells were inoculated into 96 well microtiter plates in volumes of 100 μL at plating densities ranging from 5,000 to 40,000 cells/well depending on the doubling time of individual cell lines. […] After 24 h, two plates of each cell line were fixed in situ with TCA to provide a measurement of the cell population at the time of drug addition (Tz). The experimental therapeutics were solubilized in dimethyl sulfoxide at 400-fold the desired final maximum test concentration and stored frozen prior to use. […] Bound stain was subsequently solubilized with 10 mM trizma base, and the absorbance was read on an automated plate reader at a wavelength of 515 nm. […] Using the seven absorbance measurements [time zero, (Tz), control growth, (C), and test growth in the presence of compound at the five concentration levels (Ti)], the percentage growth was calculated at each of the compound concentrations levels. Percentage growth inhibition was calculated as: [(Ti−Tz)/(C−Tz)]×100 for concentrations for which Ti≧Tz [(Ti−Tz)/Tz]×100 for concentrations for which Ti<Tz.

[4] = tested on: leukemia/lymphoma cell lines; test: Cancer cell line screening panel, summary over leukemia/lymphoma lines; type: cell-based, human; details: 6 leukemia/lymphoma cell lines
Description: as §2

Row | Molecule | Effect on growth of raw macrophage-derived cells [1] | Activity on cell growth (LDH content) ([1]; 72 hrs, alone or N-terminally linked to RYF via L-Glu (E) or D-Glu (e)) | Binding to C4S ([2]; ELISA plates coated with 1 mg/ml C4S, 1 mg/ml peptide, 1 hour, room temperature) | Selective binding to C4S over other proteoglycans ([2]; versus heparin sulphate (HS), chondroitin-6-sulfate (C6S), hyaluronic acid (HA)) | Binding to macrophages pre-treated with chlorate (Macrophages) | Binding to Sog9 cells lacking C4S (Sog9 cells) | Binding to CHO cells expressing C4S (CHO cells) | mean growth [3] | mean growth [4]
1 | 3′ amino β-D-arabinofuranoside [Ribo] | no effect | inactive | – | – | – | – | – | – | –
2 | RYFvRIKYRh (RYF[dV]RIKYR[dH]) | – | – | specifically binds to the C4S proteoglycan | selectively binds C4S over the other proteoglycans tested; also recorded: specifically and selectively binds C4S over other proteoglycans | binding correlated with chondroytine sulfate expression; also recorded: binding decreased with decreasing C4S expression | did not bind; also recorded: failed to bind | intense, uniform binding | – | –
3 | Nc1nc2nc[nH]c2c(=S)[nH]1 [tg, Thioguanine] | no effect | – | – | – | – | – | – | 86.65 % of untreated | 44.13 % of untreated
